From ChEMBL document CHEMBL3608235, “Pyrroloaryls and pyrroloheteroaryls: Inhibitors of the HIV fusion/attachment, reverse transcriptase and integrase” (Bioorg Med Chem, 2015)

Experiments:
[1] = test system: Human immunodeficiency virus 2; assay: Antiviral activity against HIV2 ROD; assay type: functional, organism-based; details: Human immunodeficiency virus 2, ISOLATE ROD
[2] = test system: Human immunodeficiency virus 1; assay: Antiviral activity against HIV1 infected in human MT4 cells assessed as reduction in virus-induced cytopathogenicity; assay type: functional, organism-based; details: Human immunodeficiency virus 1, MT4
[3] = Cytotoxicity against mock-infected human MT4 cells assessed as reduction in cell viability; assay type: cell-based
[4] = Selectivity index, ratio of CC50 for mock-infected human MT4 cells to EC50 for HIV1 infected in human MT4 cells; assay type: toxicity, cell-based; details: MT4 cells (mock-infected and HIV1-infected), read-out: Ratio CC50/EC50
[5] = target: Human immunodeficiency virus type 1 reverse transcriptase (Human immunodeficiency virus 1, UniProt Q72547); assay: Inhibition of HIV1 reverse transcriptase
[6] = test system: Human immunodeficiency virus 1; assay: Antiviral activity against HIV1 3B; assay type: functional, organism-based; details: Human immunodeficiency virus 1, 3B
[7] = test system: Human immunodeficiency virus; assay: Antiviral activity against HIV by XTT assay; assay type: functional, organism-based; details: Human immunodeficiency virus 1

Row | SMILES | EC50 [1] [µM] | EC50 [2] [µM] | CC50 [3] [µM] | also measured
1 | CC(C)=CCN1C(=O)N(Cc2cccc(Cl)c2)S(=O)(=O)n2cccc21 | > 150 |  |  | 
2 | O=C1N(Cc2cccc(Cl)c2)c2cccn2S(=O)(=O)N1Cc1ccccc1 | > 150 |  |  | 
3 | CC(C)c1c(COC(N)=O)cn(Cc2ccncc2)c1Sc1cc(Cl)cc(Cl)c1 |  | 0.12 | > 200 | selectivity ratio [4]: > 1670
4 | CN1C(=O)c2cccn2S(=O)(=O)c2ccccc21 |  | 3.5 | > 100 | IC50 [5]: 4 µM
5 | Cc1cc(C)cc(Sc2c(C(C)C)c(COC(N)=O)cn2Cc2ccncc2)c1 |  | 0.15 | > 200 | selectivity ratio [4]: 1330
6 | O=C1N(Cc2ccccc2Cl)c2cccn2S(=O)(=O)N1Cc1cccc(F)c1 | > 150 |  |  | EC50 [6]: 7.2 µM
7 | N#CCN1C(=O)N(Cc2ccccc2)S(=O)(=O)n2cccc21 | > 150 |  |  | 
8 | CC(C)c1c(COC(N)=O)cn(Cc2ccc(N)cc2)c1Sc1cc(Cl)cc(Cl)c1 |  | 0.1 | > 200 | selectivity ratio [4]: 2000
9 | CCCC(=O)NC1=NN(C)c2ncnc3c2c1cn3[C@@H]1O[C@H](CO)[C@@H](O)[C@H]1O |  |  |  | IC50 [7]: 0.5 µM
10 | N#Cc1ccccc1CN1C(=O)N(Cc2cccc(F)c2)S(=O)(=O)n2cccc21 | > 150 |  |  | EC50 [6]: 5.6 µM
11 | N#Cc1cccc(CN2C(=O)N(Cc3cccc(F)c3)S(=O)(=O)n3cccc32)c1 | > 150 |  |  | 
12 | O=C1N(Cc2ccccc2Br)c2cccn2S(=O)(=O)N1Cc1cccc(Br)c1 | > 150 |  |  | 
13 | O=C1N(Cc2ccccc2Br)c2cccn2S(=O)(=O)N1Cc1cccc(Cl)c1 | > 150 |  |  | 
14 | N#Cc1ccccc1CN1C(=O)N(Cc2cccc(Br)c2)S(=O)(=O)n2cccc21 | > 150 |  |  | 
15 | O=C1Nc2ccc(Cl)cc2S(=O)(=O)n2cccc21 |  | 1 | > 300 | selectivity ratio [4]: > 300; IC50 [5]: 0.7 µM
16 | CC(C)c1c(COC(N)=O)cn(Cc2ccncc2)c1Sc1cc(F)cc(F)c1 |  | 0.1 | > 200 | selectivity ratio [4]: 2000
17 | CCCCCCCCCC(=O)NC1=NN(C)c2ncnc3c2c1cn3[C@@H]1O[C@H](CO)[C@@H](O)[C@H]1O |  |  |  | IC50 [7]: > 100 µM
18 | CCCCCCCC(=O)NC1=NN(C)c2ncnc3c2c1cn3[C@@H]1O[C@H](CO)[C@@H](O)[C@H]1O |  |  |  | IC50 [7]: > 100 µM
19 | O=C1N(Cc2ccccc2Br)c2cccn2S(=O)(=O)N1Cc1cccc(F)c1 | > 150 |  |  | 
20 | O=C1N(Cc2ccccc2Br)c2cccn2S(=O)(=O)N1Cc1ccccc1 | > 150 |  |  | 
21 | CCC1(c2ccccc2)Sc2ccccc2-n2cccc2C1=O (stereo unspecified) |  | 4.9 | 0.25 | selectivity ratio [4]: 9; IC50 [5]: 0.47 µM
22 | O=C1Nc2ccccc2S(=O)(=O)n2cccc21 |  | 3.5 | > 100 | IC50 [5]: 4 µM
23 | N#Cc1cccc(CN2C(=O)N(Cc3cccc(Br)c3)S(=O)(=O)n3cccc32)c1 | > 150 |  |  | 

Row | SMILES | EC50 [1] [µM] | EC50 [2] [µM] | CC50 [3] [µM] | also measured
24 | N#CCN1C(=O)N(Cc2cccc(Cl)c2)S(=O)(=O)n2cccc21 | > 150 |  |  | 
25 | C=CCN1C(=O)c2cccn2S(=O)(=O)c2ccccc21 |  | 3.5 | > 100 | IC50 [5]: 4 µM
26 | N#Cc1cccc(CN2C(=O)N(Cc3cccc(Cl)c3)S(=O)(=O)n3cccc32)c1 | > 150 |  |  | 
27 | N#Cc1ccccc1CN1C(=O)N(Cc2cccc(Cl)c2)S(=O)(=O)n2cccc21 | > 150 |  |  | 
28 | N#CCN1C(=O)N(Cc2cccc(F)c2)S(=O)(=O)n2cccc21 | > 150 |  |  | 
29 | CC(C)=CCn1cc2c(c1)S(=O)(=O)c1cc(Cl)ccc1NC2=S |  | 0.7 |  | 
30 | O=C1N(Cc2cccc(Cl)c2)c2cccn2S(=O)(=O)N1Cc1cccc(Cl)c1 | > 150 |  |  | 
31 | CC(C)N1C(=O)c2cccn2S(=O)(=O)c2ccccc21 |  | 3.5 | > 100 | IC50 [5]: 4 µM
32 | O=C1N(Cc2ccccc2)c2cccn2S(=O)(=O)N1Cc1cccc(F)c1 | > 150 |  |  | 
33 | O=C1N(Cc2cccc(Cl)c2)c2cccn2S(=O)(=O)N1Cc1cccc(Br)c1 | > 150 |  |  | 
34 | CN1C(=O)c2cccn2S(=O)(=O)c2cc(Cl)ccc21 |  | 0.5 | > 300 | selectivity ratio [4]: > 600; IC50 [5]: 0.5 µM
35 | N#CCN1C(=O)N(Cc2cccc(Br)c2)S(=O)(=O)n2cccc21 | > 150 |  |  | 
36 | CSCn1cc2c(c1)S(=O)(=O)c1cc(Cl)ccc1NC2=O |  | 2.2 |  | 
37 | Cn1cc2c(c1)S(=O)(=O)c1cc(Cl)ccc1NC2=S |  | 7.6 |  | 
38 | C=CCC1(c2ccccc2)Sc2ccccc2-n2cccc2C1=O (stereo unspecified) |  | 6.4 | 25 | selectivity ratio [4]: 9; IC50 [5]: 0.71 µM
39 | CC(C)=CCN1C(=O)N(Cc2ccccc2)S(=O)(=O)n2cccc21 | > 150 |  |  | 
40 | CC1(c2ccccc2)Sc2ccccc2-n2cccc2C1=O (stereo unspecified) |  | 6.9 | 10 | selectivity ratio [4]: 9; IC50 [5]: 0.35 µM
41 | CCCCCCCCC(=O)NC1=NN(C)c2ncnc3c2c1cn3[C@@H]1O[C@H](CO)[C@@H](O)[C@H]1O |  |  |  | IC50 [7]: > 100 µM
42 | C/C=C/CN1C(=O)c2cccn2S(=O)(=O)c2cc(Cl)ccc21 |  | 4.1 | > 300 | selectivity ratio [4]: > 73; IC50 [5]: 3.1 µM
43 | Cc1cccc(Sc2c(C(C)C)c(CO)cn2Cc2ccncc2)c1 |  | 0.008 | 50 | selectivity ratio [4]: 3250
44 | CC(C)c1c(CO)cn(Cc2ccncc2)c1Sc1cccc(F)c1 |  | 0.05 | 71 | selectivity ratio [4]: 1420
45 | CC(C)c1c(CO)cn(Cc2ccncc2)c1Sc1cc(Cl)cc(Cl)c1 |  | 0.03 | > 200 | selectivity ratio [4]: > 6670
46 | O=C1N(Cc2ccccc2)c2cccn2S(=O)(=O)N1Cc1cccc(Br)c1 | > 150 |  |  | 

Row | SMILES | EC50 [1] [µM] | EC50 [2] [µM] | CC50 [3] [µM] | also measured
47 | CCCCC(=O)NC1=NN(C)c2ncnc3c2c1cn3[C@@H]1O[C@H](CO)[C@@H](O)[C@H]1O |  |  |  | IC50 [7]: 0.8 µM
48 | O=C1N(Cc2ccccc2)c2cccn2S(=O)(=O)N1Cc1ccccc1 | > 150 |  |  | 
49 | CC(C)=CCN1C(=O)N(Cc2cccc(F)c2)S(=O)(=O)n2cccc21 | > 150 |  |  | 
50 | CCN1C(=O)c2cccn2S(=O)(=O)c2ccccc21 |  | 3.5 | > 100 | IC50 [5]: 4 µM
51 | CCN1C(=O)c2cccn2S(=O)(=O)c2cc(Cl)ccc21 |  | 2.4 | > 300 | selectivity ratio [4]: 118; IC50 [5]: 2.7 µM
52 | CCC1(CC=C(C)C)Sc2ccccc2-n2cccc2C1=O (stereo unspecified) |  | 45.2 | 0.3 | selectivity ratio [4]: 9; IC50 [5]: 1.35 µM
53 | O=S1(=O)c2cc(Cl)ccc2NC(=S)c2c[nH]cc21 |  | 8.1 |  | 
54 | O=C1N(Cc2ccccc2Cl)c2cccn2S(=O)(=O)N1Cc1ccccc1 | > 150 |  |  | 
55 | Cc1cccc(Sc2c(C(C)C)c(COC(N)=O)cn2Cc2ccncc2)c1 |  | 0.12 | > 200 | selectivity ratio [4]: 1670
56 | CCCCCCCCCCCC(=O)NC1=NN(C)c2ncnc3c2c1cn3[C@@H]1O[C@H](CO)[C@@H](O)[C@H]1O |  |  |  | IC50 [7]: > 100 µM
57 | O=C1N(Cc2ccccc2)c2cccn2S(=O)(=O)N1Cc1cccc(Cl)c1 | > 150 |  |  | 
58 | CC(C)=CCN1C(=O)N(Cc2cccc(Br)c2)S(=O)(=O)n2cccc21 | > 150 |  |  | 
59 | CC(C)c1c(COC(N)=O)cn(Cc2ccncc2)c1Sc1cccc(F)c1 |  | 0.2 | > 200 | selectivity ratio [4]: 1000
60 | O=C1Nc2ccc(Cl)cc2S(=O)(=O)c2cn(CC3CC3)cc21 |  | 2.2 |  | 
61 | C=CCN1C(=O)c2cccn2S(=O)(=O)c2cc(Cl)ccc21 |  | 3.7 | > 300 | selectivity ratio [4]: > 81; IC50 [5]: 2.9 µM
62 | CN1C(=S)c2cn(C)cc2S(=O)(=O)c2cc(Cl)ccc21 |  | 1.6 |  | 
63 | CCCCCC(=O)NC1=NN(C)c2ncnc3c2c1cn3[C@@H]1O[C@H](CO)[C@@H](O)[C@H]1O |  |  |  | IC50 [7]: 0.35 µM
64 | CC(C)=CCn1cc2c(c1)S(=O)(=O)c1cc(Cl)ccc1NC2=O |  |  | 68 | selectivity ratio [4]: 226
65 | O=C(NNc1nc2ccccc2n2cccc12)c1cnccn1 |  |  |  | IC50 [5]: 19 µM
66 | CCCCCCC(=O)NC1=NN(C)c2ncnc3c2c1cn3[C@@H]1O[C@H](CO)[C@@H](O)[C@H]1O |  |  |  | IC50 [7]: 0.035 µM
67 | CCN1C(=O)c2cccn2S(=O)(=O)c2ccc(Cl)cc21 |  | 3.5 | > 100 | IC50 [5]: 4 µM
68 | CCC1(c2ccc3ccccc3c2)Sc2ccccc2-n2cccc2C1=O (stereo unspecified) |  | 37.3 | 0.5 | selectivity ratio [4]: 9; IC50 [5]: 0.85 µM
